{"source": "paper PMC11939078", "about": "“TAK-994 mechanistic investigation into drug-induced liver injury” (Toxicological Sciences, 2025)", "key": {"[1]": {"tested_on": "HepG2", "experiment": "Mito Stress Test (Seahorse, ECAR and OCR)", "assay_type": "cell-based, human", "conditions": "3, 10, 30, and 100 μM"}, "[2]": {"experiment": "Plasma exposure in NT1 patients", "assay_type": "in vivo, human"}, "[3]": {"tested_on": "patients with narcolepsy", "experiment": "Phase II studies TAK-994-1501 and TAK-994-1504"}, "[4]": {"tested_on": "PXB cells (human hepatocytes)", "experiment": "CLF efflux (bile transport) assay in PXB cells", "assay_type": "cell-based", "conditions": "n = 3", "protocol": "Cholyl-lysyl-fluorescein (CLF) efflux for TAK-994 was assessed using human hepatocytes implanted into PXB-mice. PXB cells were exposed to TAK-994 (0.3, 1, 3, 10, 30, and 100 μM) or vehicle for 2 h and then incubated for an additional 30 min with TAK-994 or vehicle containing 5 μM CLF. CLF efflux and its inhibition by TAK-994 were assessed by fluorescence analysis.\nPXB hepatocytes were generated by implanting human hepatocytes into PXB-mice®. These hepatocytes were isolated by collagenase perfusion at PhoenixBio Co Ltd. Freshly isolated hepatocytes were maintained in T-75 flasks and detached using 0.25% trypsin/ethylenediaminetetraacetic acid (EDTA) incubation for 20 minutes (total) using the following procedure. A flash wash was performed with cold trypsin/EDTA, followed by a 5-minute incubation with cold trypsin/EDTA at 37°C, and finally a 15-minute incubation at 37°C with trypsin/EDTA. […]\nOn Day 8, PXB cells were exposed to TAK-994 (0.3, 1, 3, 10, 30, and 100 μM) or 0.1% DMSO for 2 hours and then incubated for an additional 30 minutes with TAK-994 or […] containing 5 μM CLF. […] The CLF efflux and its inhibition by TAK-994 was quantified using Developer toolbox software. […] The fluorescent intensities of bile canalicular regions were measured to determine the IC50 for TAK-994 CLF efflux inhibition. […]"}, "[5]": {"tested_on": "human liver microtissues", "experiment": "Human liver microtissue (co-culture) cytotoxicity, cellular ATP", "assay_type": "cell-based", "protocol": "Toxicology of TAK-994 was assessed using lnSphero’s 3D lnSight Human Liver models, based on N-acetyl-L-cysteine causality assay, glutathione depletion assay, and lipopolysaccharide (LPS)-sensitization assay. Hepatotoxicity was assessed in 7- and 14-day mono and co-culture models, in which cells were exposed to TAK-994 (0.1, 0.3, 1, 3.16, 10, 31.6, or 100 μM) […].\nThe test system was Human 3D InSight Liver Models, production ID hLiMT_589, cryopreserved primary human hepatocytes (Lot IPDH_18; single donor) in monoculture or in co-culture with cryopreserved primary human nonparenchymal cells (Lot IPHN_17; single donor). Human liver microtissues are composed of roughly 1000 hepatocytes and 1000 non-parenchymal live cells. Non-parenchymal liver cell fractions are expected to be composed of Kupffer cells and liver endothelial cells however, these were not identified.\nThe culture medium was 3D InSight Human Liver Maintenance Medium TOX (Catalogue No. CS-07-001, InSphero). The treated cells in 96-well Akura™ plates were incubated in a humidified cell culture incubator (37°C, 5% CO2).\nMono and co-culture model cells were exposed to TAK-994 (0.1, 0.3, 1, 3.16, 10, 31.6, or 100 μM in 0.5% DMSO) for 7 days (TAK-994 administered on Days 0 and 4) or 14 days (TAK-994 administered on Days 0, 5, and 9). Six replicates were tested for each condition. The vehicle control was 0.5% DMSO, and the positive control was chlorpromazine (0.1, 0.3, 1, 3.16, 10, 31.6, or 100 μM in DMSO). Cellular ATP content was measured in the cell lysate on Days 7 or 14 of treatment. LDH release was measured in the cell supernatant on Days 4 and 7 or on Days 5, 9, and 14 and normalized to lysed controls.\nIntracellular ATP content in model lysates was measured with the CellTiter-Glo® 2.0 Cell Viability Assay (Catalogue No. G9243, Promega). The Bioluminescent LDH Release Toxicity Assay Kit (Catalogue No. J2380, Promega) was used to assess extracellular LDH release and normalized to lysed controls. ATP, LDH, GSH, and triglycerides were measured according to internal technical operating procedures."}}, "note": "pIC50: −log10 of the molar value.", "data": [{"smiles": "CC(C)(O)C(=O)N1CC[C@H](NS(C)(=O)=O)[C@@H]1Cc1cccc(-c2cc(F)cc(F)c2)c1F.CC(C)(O)C(=O)N1CC[C@H](NS(C)(=O)=O)[C@@H]1Cc1cccc(-c2cc(F)cc(F)c2)c1F.O.O.O", "note": "[TAK-994]", "values": [{"measurement": "changes to mitochondrial respiration (media acidification and oxygen consumption rate)", "setting": "[1]", "result": "no TAK-994-induced changes to mitochondrial respiration"}, {"measurement": "AUC24, ss in NT1 patients", "setting": "[2]; 30 mg BID", "result": "2,920 h*nM"}, {"measurement": "Cmax", "setting": "[2]; 30 mg BID", "result": 408, "unit": "nM"}, {"measurement": "AUC24, ss in NT1 patients", "setting": "[2]; 90 mg BID", "result": "8,870 h*nM"}, {"measurement": "Cmax", "setting": "[2]; 90 mg BID", "result": 948, "unit": "nM"}, {"measurement": "AUC24, ss in NT1 patients", "setting": "[2]; 180 mg BID", "result": "14,800 h*nM"}, {"measurement": "Cmax", "setting": "[2]; 180 mg BID", "result": 1640, "unit": "nM"}, {"measurement": "subjects who met discontinuation criteria due to increases in liver transaminases", "setting": "[3]; 90- and 180-mg BID treatment groups", "result": 8}, {"measurement": "cases that satisfied Hy's Law criteria, diagnosed as DILI", "setting": "[3]; 90 and 180 mg dose groups", "result": 3}, {"measurement": "pIC50", "setting": "[4]", "result": 4.52}, {"measurement": "loss of cellular ATP", "setting": "[5]; 100 µM TAK-994, presence of nonparenchymal cells", "result": "~50", "unit": "%"}, {"measurement": "liver microtissue IC50 relative to clinical Cmax", "setting": "[5]; 14 days, Cmax in patients dosed at 90 mg", "result": "> 100", "unit": "fold"}, {"measurement": "pIC50", "setting": "[5]; cellular ATP, read-out: IC50, liver microtissues (Fig. 2B)", "result": "< 4.00"}]}]}
